From patent publication US20210038607A1, “OXADIAZOLYLTHIOPHENE DERIVATIVES USEFUL AS HISTONE DEACETYLASE INHIBITORS” (Karus Therapeutics Limited, priority 2018, published 2021)

Legend:
Human HDAC4 = target: T1, Human HDAC4 (Homo sapiens, UniProt P56524); assay: HDAC4 biochemical assay, class IIa-specific substrate; conditions: read-out: HDAC Isoform IC50 (nM) 4
T1 construct: amino acids 627-1085 with N-terminal GST tag; GST (N); host or cells: baculovirus expression system
Procedure, shortened: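 GST-tagged human HDAC4 (aa 627-1085, baculovirus) at 0.004 ng/ul was incubated 30 min at room temperature with 50 μM class IIa-specific substrate BOC-Lys(trifluoroacetyl)-AMC in Tris-HCl pH 8.0 buffer with BSA, 1% DMSO. Developer then released AMC, read at 360/460 nm.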

Human HDAC5 = target: T2, Human HDAC5 (Homo sapiens, UniProt Q9UQL6); assay: HDAC5 biochemical assay, class IIa-specific substrate; conditions: read-out: HDAC Isoform IC50 (nM) 5
T2 construct: full length with C-terminal His tag, MW=51.1 kDa; His (C); host or cells: baculovirus expression system
Procedure, shortened: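 Full-length C-terminal His-tagged HDAC5 from baculovirus (0.05 ng/ul) incubated 30 min at room temperature with 50 μM Boc-Lys(trifluoroacetyl)-AMC and compound, Tris pH 8.0 buffer with BSA, 1% DMSO. Developer then releases AMC; fluorescence 360/460 nm.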

Human HDAC2 = target: T3, Human HDAC2 (Homo sapiens, UniProt Q92769); assay: HDAC2 biochemical assay, AMC-labeled peptide substrate; conditions: read-out: HDAC Isoform IC50 (nM) 2
T3 construct: full length with C-terminal GST-tag; GST (C); host or cells: baculovirus expression system
Description: (§1) Activity against all zinc-dependent HDACs 1 to 11 was assessed by using an acetylated AMC-labeled peptide substrate. The substrate RHKK(Ac)AMC was used for HDAC1, HDAC2, HDAC3, HDAC6 and HDAC10; the substrate used for HDAC8 was RHK(Ac)K(Ac)AMC. Activity against the class IIa HDACs (HDAC4, 5, 7, 9) and HDAC11 was determined using a class IIa-specific substrate, BOC-Lys(trifluoroacetyl)-AMC (“Trifluoroacetyl Lysine”; see Lahm et al, 2007, PNAS, 104, 17335-17340). All assays were based on the AMC-labeled substrate and developer combination.
(§2) The protocol involved a two-step reaction: first, the substrate with the acetylated lysine side chain is incubated with a sample containing HDAC activity, to produce the deacetylated products, which are then digested in the second step by the addition of developer to produce the fluorescent signal proportional to the amount of deacetylated substrates.
Human HDAC2 (GenBank Accession No. NM_001527), full length with C-terminal GST-tag, MW=82.9 kDa, expressed inbaculovirus expression system.
(§3) Assay Buffer: 50 mM Tris-HCl, pH8.0, 137 mM NaCl, 2.7 mM KCl, 1 mM MgC2. Before use, 1 mg/mL BSA and DMSO are added.
HDAC2: 0.07 ng/ul HDAC2 and 50 μM HDAC substrate are in the reaction buffer with 1% DMSO final. Incubate for 1 hour at 30° C.
(§4) Stage 1: Deacetylation of substrate by incubation of HDAC enzymes with compounds
(§5) Stage 2: Development by addition of Developer to digest the deacetylated substrate, and generate the fluorescent colour; Detection: 360/460 Ex/Em

Human HDAC1 = target: T4, Human HDAC1 (Homo sapiens, UniProt Q13547); assay: HDAC1 biochemical assay, AMC-labeled peptide substrate; conditions: read-out: HDAC Isoform IC50 (nM) 1
T4 construct: full length with C-terminal His-tag and C-terminal FLAG-tag; His (C); FLAG (C); host or cells: baculovirus expression system
Procedure, shortened: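 Baculovirus-expressed full-length human HDAC1 with His and FLAG tags, 0.3 ng/ul, incubated 1 h at 30° C with compound and 50 μM RHKK(Ac)AMC in Tris pH 8.0 buffer with BSA and 1% DMSO. Developer then releases AMC from deacetylated substrate; fluorescence read at 360/460 nm.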

Human HDAC10 = target: T5, Human HDAC10 (Homo sapiens, UniProt Q969S8); assay: HDAC10 biochemical assay, AMC-labeled peptide substrate; conditions: read-out: HDAC Isoform IC50 (nM) 10
T5 construct: Human HDAC10 (a.a. 1-481); GST (N); His (C); host or cells: baculovirus expression system
T5 sequence (Q969S8 1-481): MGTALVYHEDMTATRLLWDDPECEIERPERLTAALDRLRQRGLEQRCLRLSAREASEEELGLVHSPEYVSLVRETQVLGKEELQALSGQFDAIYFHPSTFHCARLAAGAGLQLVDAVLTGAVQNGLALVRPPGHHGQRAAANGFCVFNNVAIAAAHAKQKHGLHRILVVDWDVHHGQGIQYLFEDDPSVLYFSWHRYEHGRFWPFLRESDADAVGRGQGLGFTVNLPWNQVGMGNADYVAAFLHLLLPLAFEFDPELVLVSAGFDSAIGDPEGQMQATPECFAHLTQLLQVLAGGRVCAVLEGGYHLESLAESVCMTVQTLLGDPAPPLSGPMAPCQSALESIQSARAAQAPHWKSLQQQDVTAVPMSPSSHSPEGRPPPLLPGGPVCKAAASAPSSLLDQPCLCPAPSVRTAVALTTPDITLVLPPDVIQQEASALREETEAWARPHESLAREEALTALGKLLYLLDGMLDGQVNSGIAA
Description: as §1, §2
Human HDAC10 (a.a. 1-481), GenBank Accession No. NM_032019 with N-terminal GST tag and C-terminal His tag, MW=78 kDa, expressed in baculovirus expression system.
as §3
HDAC10: 12 ng/ul HDAC10 and 50 μM HDAC substrate are in the reaction buffer with 1% DMSO final. Incubate for 2 hours at 30° C.
as §4, §5

Human HDAC11 = target: T6, Human HDAC11 (Homo sapiens, UniProt Q96DB2); assay: HDAC11 biochemical assay, class IIa-specific substrate; conditions: read-out: HDAC Isoform IC50 (nM) 11
T6 construct: Human HDAC11 (full length); His (N); host or cells: baculovirus expression system
T6 sequence (Q96DB2 1-347): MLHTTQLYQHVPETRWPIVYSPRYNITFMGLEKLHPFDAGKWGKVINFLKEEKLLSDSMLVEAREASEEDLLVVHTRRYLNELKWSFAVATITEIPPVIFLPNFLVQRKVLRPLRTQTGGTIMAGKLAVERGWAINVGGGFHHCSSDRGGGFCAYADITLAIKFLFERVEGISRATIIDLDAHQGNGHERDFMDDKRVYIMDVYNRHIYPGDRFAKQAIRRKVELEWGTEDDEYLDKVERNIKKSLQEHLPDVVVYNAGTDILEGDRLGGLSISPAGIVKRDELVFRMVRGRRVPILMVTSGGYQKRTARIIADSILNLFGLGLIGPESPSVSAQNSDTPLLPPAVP
Description: as §1, §2
Human HDAC11 (full length) (GenBank Accession No. NM_024827) with N-terminal His tag, MW=42.9 kDa, expressed in baculovirus expression system.
as §3
HDAC11: 5 ng/ul HDAC11 and 50 μMHDAC substrate are in the reaction buffer with 1% DMSO final. Incubate for 30 minutes at 30° C.
as §4, §5

T2 sequence (Q9UQL6 656-1122 limits assumed): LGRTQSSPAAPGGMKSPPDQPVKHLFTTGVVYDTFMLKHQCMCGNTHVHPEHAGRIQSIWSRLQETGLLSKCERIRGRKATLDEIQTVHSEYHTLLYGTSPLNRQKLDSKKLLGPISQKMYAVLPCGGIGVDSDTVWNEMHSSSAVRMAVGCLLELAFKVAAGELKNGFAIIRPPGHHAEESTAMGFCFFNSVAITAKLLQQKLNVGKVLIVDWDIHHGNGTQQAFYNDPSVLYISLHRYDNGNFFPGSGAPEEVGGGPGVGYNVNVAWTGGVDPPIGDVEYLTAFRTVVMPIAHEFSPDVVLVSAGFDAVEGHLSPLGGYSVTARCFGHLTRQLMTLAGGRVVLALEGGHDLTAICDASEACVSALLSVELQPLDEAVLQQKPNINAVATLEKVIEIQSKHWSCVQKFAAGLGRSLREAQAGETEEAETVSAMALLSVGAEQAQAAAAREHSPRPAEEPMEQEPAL
T1 sequence (P56524 627-1084 limits assumed): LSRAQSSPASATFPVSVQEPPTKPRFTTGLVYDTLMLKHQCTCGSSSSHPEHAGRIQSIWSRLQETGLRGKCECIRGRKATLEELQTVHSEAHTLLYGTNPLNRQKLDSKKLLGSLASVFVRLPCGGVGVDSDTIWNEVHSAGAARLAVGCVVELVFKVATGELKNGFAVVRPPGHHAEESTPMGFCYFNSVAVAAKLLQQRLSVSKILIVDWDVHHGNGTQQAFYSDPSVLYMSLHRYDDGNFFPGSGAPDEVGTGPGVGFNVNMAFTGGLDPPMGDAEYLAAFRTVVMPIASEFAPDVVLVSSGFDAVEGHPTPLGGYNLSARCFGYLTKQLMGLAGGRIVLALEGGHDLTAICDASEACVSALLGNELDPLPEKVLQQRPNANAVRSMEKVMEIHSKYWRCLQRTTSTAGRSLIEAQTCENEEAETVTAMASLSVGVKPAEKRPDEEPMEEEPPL
T3 sequence (Q92769 whole entry, canonical isoform): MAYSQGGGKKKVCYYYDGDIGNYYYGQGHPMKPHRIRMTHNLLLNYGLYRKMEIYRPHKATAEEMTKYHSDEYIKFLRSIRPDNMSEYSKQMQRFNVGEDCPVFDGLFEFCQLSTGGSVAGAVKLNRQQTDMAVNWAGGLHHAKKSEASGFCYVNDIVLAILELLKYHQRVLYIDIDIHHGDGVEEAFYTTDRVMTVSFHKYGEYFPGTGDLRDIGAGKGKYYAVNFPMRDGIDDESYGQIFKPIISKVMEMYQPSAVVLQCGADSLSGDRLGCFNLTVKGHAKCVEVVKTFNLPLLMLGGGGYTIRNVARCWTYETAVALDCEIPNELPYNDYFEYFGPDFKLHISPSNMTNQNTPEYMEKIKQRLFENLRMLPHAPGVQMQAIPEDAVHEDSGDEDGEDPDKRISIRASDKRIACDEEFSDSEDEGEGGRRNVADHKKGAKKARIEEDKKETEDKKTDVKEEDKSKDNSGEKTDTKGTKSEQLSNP
T4 sequence (Q13547 whole entry, canonical isoform): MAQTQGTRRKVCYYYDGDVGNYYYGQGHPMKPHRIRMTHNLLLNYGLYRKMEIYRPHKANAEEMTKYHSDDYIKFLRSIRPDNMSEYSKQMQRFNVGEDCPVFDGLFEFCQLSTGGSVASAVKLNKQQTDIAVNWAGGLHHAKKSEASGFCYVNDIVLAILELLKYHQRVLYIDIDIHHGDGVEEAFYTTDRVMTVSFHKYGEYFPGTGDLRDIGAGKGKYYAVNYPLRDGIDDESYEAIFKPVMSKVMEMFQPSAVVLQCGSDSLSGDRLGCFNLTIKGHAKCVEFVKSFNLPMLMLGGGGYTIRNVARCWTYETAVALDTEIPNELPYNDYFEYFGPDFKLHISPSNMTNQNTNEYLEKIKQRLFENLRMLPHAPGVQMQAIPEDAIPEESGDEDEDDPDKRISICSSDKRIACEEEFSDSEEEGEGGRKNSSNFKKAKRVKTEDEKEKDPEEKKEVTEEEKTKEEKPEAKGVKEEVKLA

Row | Compound | IC50 (Human HDAC4) [nM] | IC50 (Human HDAC5) [nM] | IC50 (Human HDAC2) [nM] | IC50 (Human HDAC1) [nM] | IC50 (Human HDAC10) [nM] | IC50 (Human HDAC11) [nM]
1 | O=C(c1cnnc(N(Cc2ccc(-c3noc(C(F)(F)F)n3)s2)c2cnccn2)c1)N1CC(C(F)(F)F)C1 [Example GJ, N-(Pyrazin-2-yl)-N-({5-[5-(trifluoromethyl)-1,2,4-oxadiazol-3-yl]thiophen-2-yl}methyl)-5-[3-(trifluoromethyl)azetidine-1-carbonyl]pyridazin-3-amine] | ≤ 1000 | ≤ 10000 | > 10000 | > 10000 | > 10000 | > 10000
2 | FC(F)(F)c1nc(-c2ccc(CN(c3cnccn3)c3cc(-c4ccccn4)cnn3)s2)no1 [Example GM, N-(Pyrazin-2-yl)-5-(pyridin-2-yl)-N-({5-[5-(trifluoromethyl)-1,2,4-oxadiazol-3-yl]thiophen-2-yl}methyl)pyridazin-3-amine] | ≤ 10000 | ≤ 10000 | > 10000 | > 10000 | > 10000 | > 10000
3 | O=C(c1cnnc(N(Cc2ccc(-c3noc(C(F)(F)F)n3)s2)c2cnccn2)c1)N1CCC1 [Example FS, 5-(Azetidine-1-carbonyl)-N-(pyrazin-2-yl)-N-({5-[5-(trifluoromethyl)-1,2,4-oxadiazol-3-yl]thiophen-2-yl}methyl)pyridazin-3-amine] | ≤ 10000 | ≤ 1000 | > 10000 | > 10000 | > 10000 | > 10000
4 | Cc1cnc(N(Cc2ccc(-c3noc(C(F)(F)F)n3)s2)c2cnccn2)cn1 [Example BH, 5-Methyl-N-(pyrazin-2-yl)-N-({5-[5-(trifluoromethyl)-1,2,4-oxadiazol-3-yl]thiophen-2-yl}methyl)pyrazin-2-amine] | ≤ 1000 | ≤ 1000 | > 10000 | ≤ 10000 | > 10000 | > 10000
5 | COC1CN(Cc2ccnc(N(Cc3ccc(-c4noc(C(F)(F)F)n4)s3)c3cnccn3)c2)C1 [Example GH, N-{4-[(3-Methoxyazetidin-1-yl)methyl]pyridin-2-yl}-N-({5-[5-(trifluoromethyl)-1,2,4-oxadiazol-3-yl]thiophen-2-yl}methyl)pyrazin-2-amine] | ≤ 10000 | ≤ 1000 | > 10000 | > 10000 | > 10000 | > 10000
6 | O=C(c1cnnc(N(Cc2ccc(-c3noc(C(F)(F)F)n3)s2)c2cnccn2)c1)N1C[C@@H]2C[C@H]1CO2 [Example FV, 5-[(1S,4S)-2-Oxa-5-azabicyclo[2.2.1]heptane-5-carbonyl]-N-(pyrazin-2-yl)-N-({5-[5-(trifluoromethyl)-1,2,4-oxadiazol-3-yl]thiophen-2-yl}methyl)pyridazin-3-amine] | ≤ 10000 | ≤ 1000 | > 10000 | > 10000 | > 10000 | > 10000
7 | O=C(O)c1cnnc(N(Cc2sc(-c3noc(C(F)(F)F)n3)cc2F)c2cnccn2)c1 [Example FA, 6-[({3-fluoro-5-[5-(trifluoromethyl)-1,2,4-oxadiazol-3-yl]thiophen-2-yl}methyl)(pyrazin-2-yl)amino]pyridazine-4-carboxylic acid] | ≤ 10000 | ≤ 1000 | > 10000 | > 10000 | > 10000 | > 10000
8 | OC1(c2cnnc(N(Cc3ccc(-c4noc(C(F)(F)F)n4)s3)c3cnccn3)c2)COC1 [Example GW, 3-{6-[(Pyrazin-2-yl)({5-[5-(trifluoromethyl)-1,2,4-oxadiazol-3-yl]thiophen-2-yl}methyl)amino]pyridazin-4-yl}oxetan-3-ol] | ≤ 10000 | ≤ 10000 | > 10000 | > 10000 | > 10000 | > 10000
9 | CNC(=O)c1ccc(N(Cc2ccc(-c3noc(C(F)(F)F)n3)s2)c2cnccn2)nn1 [Example FC, N-Methyl-6-[(pyrazin-2-yl)({5-[5-(trifluoromethyl)-1,2,4-oxadiazol-3-yl]thiophen-2-yl}methyl)amino]pyridazine-3-carboxamide] | ≤ 1000 | ≤ 500 | > 10000 | ≤ 10000 | > 10000 | > 10000
10 | FC(F)(F)c1cnnc(N(Cc2ccc(-c3noc(C(F)(F)F)n3)s2)c2cc(C(F)(F)F)cnn2)c1 [Example EU, 5-(Trifluoromethyl)-N-({5-[5-(trifluoromethyl)-1,2,4-oxadiazol-3-yl]thiophen-2-yl}methyl)-N-[5-(trifluoromethyl)pyridazin-3-yl]pyridazin-3-amine] | ≤ 10000 | ≤ 10000 |  | > 10000 |  | 
11 | FC(F)(F)c1cnnc(N(Cc2ccc(-c3noc(C(F)(F)F)n3)s2)c2cccnn2)c1 [Example ER, N-(Pyridazin-3-yl)-5-(trifluoromethyl)-N-({5-[5-(trifluoromethyl)-1,2,4-oxadiazol-3-yl]thiophen-2-yl}methyl)pyridazin-3-amine] | ≤ 10000 | ≤ 10000 |  | > 10000 |  | 
12 | COc1cncc(N(Cc2ccc(-c3noc(C(F)(F)F)n3)s2)c2cc(C(F)(F)F)cnn2)n1 [Example EN, N-(6-Methoxypyrazin-2-yl)-5-(trifluoromethyl)-N-({5-[5-(trifluoromethyl)-1,2,4-oxadiazol-3-yl]thiophen-2-yl}methyl)pyridazin-3-amine] | ≤ 10000 | ≤ 10000 |  | > 10000 |  | 
